# Reference: US10821069B2, “Aqueous extract of truffle and cosmetic composition thereof” (ISP INVESTMENTS LLC, priority 2014, dated 2020)
# System: Normal human keratinocytes
# Experiment: Mitochondrial ROS production after rotenone-induced production of ROS (MITOSOX staining)
# Format: cell-based
# Settings: 1 μM Rotenone for 4 hours, no extract
# Procedure: The purpose of this study is to determine the influence of the Truffle extract according to example 2 regarding the mitochondrial Reactive oxygen Species (ROS) production. Mitochondrial ROS were induced by rotenone, an electron transport chain complex inhibitor.
# Method: Normal human keratinocytes extracted from a […] […] abdominal skin were seeded in 8 well culture PERMANOX® plastic slides (Thermo Scientific, Waltham, Mass., USA). Cells were pre-treated with two applications per day of the Truffle extract of example 2 (at 0.01% and 0.05%) for 48 h in KSFM medium (Gibco, Auckland, NZ) supplemented with 50 μg·ml-1 bovine pituitary extract (Gibco), 5 ng·ml-1 human recombinant EGF (Gibco) and 0.1 mg·ml-1 PRIMOCIN™ (Invivogen, San Diego, Calif., USA). Then cells were submitted to 1 μM Rotenone application for 4 hours. Immediately after the stress, culture medium was replaced with fresh KSFM for 1 hour. At the end of incubation, a 5 μM MITOSOX® (Life Technologies, Carlsbad, Calif., USA) solution was incubated further for 20 min at 37° C. in 5% CO2 atmosphere. […] Digital images were acquired with an inverted Zeiss Axiovert 200M microscope (Zeiss, Oberkochen, Germany) with a 20× objective. […] Statistical significance of the data was assessed by paired Student's t-test (n=3, p<0.05 was considered significant; p<0.01 as very significant and p<0.005 as highly significant).
smiles,measurement,value
C=C(C)[C@H]1Cc2c(ccc3c2O[C@@H]2COc4cc(OC)c(OC)cc4[C@@H]2C3=O)O1 [rotenone],increase in ROS production in keratinocytes compared to untreated control,45%
